{"source": "ChEMBL document CHEMBL1134463", "about": "(2001)", "key": {"[1]": {"molecular_target": "T1, Neuronal acetylcholine receptor; alpha3/beta4 (Homo sapiens) (UniProt P30926+P32297)", "assay": "Agonistic activity against rat Alpha3 beta-4 Nicotinic Receptor expressed in Xenopus oocytes; NA=inactive", "format": "functional, cell-based", "details": "Oocyte"}, "[2]": {"molecular_target": "Neuronal acetylcholine receptor; alpha4/beta2 (Homo sapiens) (UniProt P17787+P43681)", "assay": "Agonistic activity against rat Nicotinic acetylcholine receptor alpha4-beta2 expressed in Xenopus oocytes; NA=inactive", "format": "functional, cell-based", "details": "Oocyte"}, "[3]": {"molecular_target": "Neuronal acetylcholine receptor subunit alpha-7 (Rattus norvegicus) (UniProt Q05941)", "sequence (Q05941 whole entry)": "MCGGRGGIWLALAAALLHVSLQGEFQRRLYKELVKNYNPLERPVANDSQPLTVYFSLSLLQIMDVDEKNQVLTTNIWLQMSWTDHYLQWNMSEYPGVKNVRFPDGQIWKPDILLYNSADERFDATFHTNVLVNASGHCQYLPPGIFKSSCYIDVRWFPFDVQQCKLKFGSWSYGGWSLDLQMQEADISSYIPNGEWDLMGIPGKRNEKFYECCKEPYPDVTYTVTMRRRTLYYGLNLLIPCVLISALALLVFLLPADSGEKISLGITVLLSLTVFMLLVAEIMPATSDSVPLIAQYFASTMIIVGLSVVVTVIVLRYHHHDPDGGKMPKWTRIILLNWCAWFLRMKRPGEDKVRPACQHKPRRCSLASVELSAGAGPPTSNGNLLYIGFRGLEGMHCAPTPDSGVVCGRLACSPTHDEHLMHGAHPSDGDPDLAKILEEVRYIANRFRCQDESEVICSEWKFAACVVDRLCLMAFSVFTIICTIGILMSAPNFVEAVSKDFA", "assay": "Agonistic activity against rat nicotinic acetylcholine receptor alpha-7 expressed in Xenopus oocytes; NA=inactive", "format": "functional, cell-based", "details": "Oocyte"}, "Rattus norvegicus": {"species": "Rattus norvegicus", "assay": "Agonistic activity against Rat muscle Nicotinic Receptor", "format": "functional"}, "[4]": {"molecular_target": "Neuronal acetylcholine receptor subunit alpha-7 (Rattus norvegicus) (UniProt Q05941)", "assay": "Agonistic activity against rat nicotinic acetylcholine receptor alpha-7 expressed in Xenopus oocytes", "format": "functional, cell-based", "details": "Oocyte"}, "[5]": {"test_system": "Neuronal acetylcholine receptor alpha4/beta2 (Rattus norvegicus)", "assay": "Agonistic activity against rat Nicotinic acetylcholine receptor alpha4-beta2 expressed in Xenopus oocytes", "details": "Oocyte"}, "[6]": {"test_system": "Neuronal acetylcholine receptor alpha3/beta4 (Rattus norvegicus)", "assay": "Agonistic activity against Alpha3 beta-4 Nicotinic receptor from Xenopus oocytes expressing recombinant nAChR from rat", "details": "Oocyte"}, "[7]": {"molecular_target": "T1, Neuronal acetylcholine receptor; alpha3/beta4 (Homo sapiens)", "assay": "Agonistic activity against Alpha3 beta4 Nicotinic receptor from Xenopus oocytes expressing recombinant nAChR from rat; NA=inactive", "format": "functional, cell-based", "details": "Oocyte"}, "[8]": {"molecular_target": "T1, Neuronal acetylcholine receptor; alpha3/beta4 (Homo sapiens)", "assay": "Agonistic activity against rat Alpha3 beta-4 Nicotinic Receptor expressed in Xenopus oocytes", "format": "functional, cell-based", "details": "Oocyte"}}, "note": "Calls of active or inactive are those of the source. No cut-off for these calls is given here.", "data": [{"smiles": "CCOC(=O)N1C2CC[C@@H]1CC2c1cc(Cl)nnc1Cl", "note": "(stereo not given in full)", "values": [{"measurement": "Activity", "setting": "[1]", "result": "inactive"}, {"measurement": "Activity", "setting": "[2]", "result": "inactive"}, {"measurement": "Activity", "setting": "[3]", "result": "inactive"}]}, {"smiles": "CN1CCC[C@H]1c1cccnc1.O=C(O)C(O)C(O)C(=O)O.O=C(O)C(O)C(O)C(=O)O", "values": [{"measurement": "Activity", "setting": "Rattus norvegicus", "result": 6.3, "unit": "µM"}, {"measurement": "Activity", "setting": "[4]", "result": 12.6, "unit": "µM"}]}, {"smiles": "c1cc(C2CC3CCC2N3)cnn1", "note": "(stereo not given)", "values": [{"measurement": "Activity", "setting": "Rattus norvegicus", "result": 0.16, "unit": "µM"}, {"measurement": "Activity", "setting": "[4]", "result": 40, "unit": "µM"}, {"measurement": "Activity", "setting": "[5]", "result": 0.02, "unit": "µM"}, {"measurement": "Activity", "setting": "[6]", "result": 0.16, "unit": "µM"}]}, {"smiles": "FC(F)(F)c1cc(C2CC3CCC2N3)c(C(F)(F)F)nn1", "note": "(stereo not given)", "values": [{"measurement": "Activity", "setting": "[2]", "result": "inactive"}, {"measurement": "Activity", "setting": "[3]", "result": "inactive"}, {"measurement": "Activity", "setting": "[7]", "result": "inactive"}]}, {"smiles": "CC(=O)OCC[N+](C)(C)C", "note": "[ACETYLCHOLINE]", "values": [{"measurement": "Activity", "setting": "Rattus norvegicus", "result": 0.1, "unit": "µM"}, {"measurement": "Activity", "setting": "[4]", "result": 50, "unit": "µM"}]}, {"smiles": "Clc1ccc(C2CC3CCC2N3)cn1", "note": "(racemic) [EPIBATIDINE]", "values": [{"measurement": "Activity", "setting": "[8]", "result": 0.005, "unit": "µM"}, {"measurement": "Activity", "setting": "Rattus norvegicus", "result": 0.03, "unit": "µM"}, {"measurement": "Activity", "setting": "[4]", "result": 0.5, "unit": "µM"}]}, {"smiles": "CN1C2CC[C@@H]1CC2c1ccnnc1", "note": "(stereo not given in full)", "values": [{"measurement": "Activity", "setting": "Rattus norvegicus", "result": 0.2, "unit": "µM"}, {"measurement": "Activity", "setting": "[4]", "result": 25, "unit": "µM"}, {"measurement": "Activity", "setting": "[5]", "result": 0.013, "unit": "µM"}, {"measurement": "Activity", "setting": "[6]", "result": 0.32, "unit": "µM"}]}, {"smiles": "CCOC(=O)N1C2CC[C@@H]1CC2c1ccnnc1", "note": "(stereo not given in full)", "values": [{"measurement": "Activity", "setting": "Rattus norvegicus", "result": ">100", "unit": "µM"}, {"measurement": "Activity", "setting": "[5]", "result": "> 100", "unit": "µM"}, {"measurement": "Activity", "setting": "[3]", "result": "inactive"}, {"measurement": "Activity", "setting": "[7]", "result": "inactive"}]}]}
